Where two headings read alike, the source gives them in different places.

In assay [1] the target is T1, DHFR-C-HiBiT (Homo sapiens, UniProt P00374).
T1 sequence (P00374 2-187): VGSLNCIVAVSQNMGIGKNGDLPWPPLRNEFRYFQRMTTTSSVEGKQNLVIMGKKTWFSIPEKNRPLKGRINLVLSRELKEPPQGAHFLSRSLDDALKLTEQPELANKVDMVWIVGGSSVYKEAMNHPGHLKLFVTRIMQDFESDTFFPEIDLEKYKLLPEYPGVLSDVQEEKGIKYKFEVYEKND
Nature of the assay: SDR assay, purified DHFR-C-HiBiT. Conditions: for enhanced sensitivity in the SDR assay format versus functional DHFR assay: DHFR-C-HiBiT 0.5 nM, 5 μM NADPH (SDR) vs 100 nM, 75 μM NADPH (functional). Background: The HiBiT peptide binds its large partner to form an active luciferase.

For assay [2], the target named is T2, endogenous DHFR-C-HiBiT in HEK293 cell lysate (Homo sapiens, UniProt P00374).
T2 construct: from a mammalian cellular lysate containing an endogenous α-peptide tagged protein, obtained using CRISPR/Cas9-mediated homologous recombination; host or cells: HEK293 constitutively expressing S. pyogenes Cas9, CRISPR/HDR-edited monoclonal line; NP-40 lysate used at 1:100
T2 sequence (P00374 1-187): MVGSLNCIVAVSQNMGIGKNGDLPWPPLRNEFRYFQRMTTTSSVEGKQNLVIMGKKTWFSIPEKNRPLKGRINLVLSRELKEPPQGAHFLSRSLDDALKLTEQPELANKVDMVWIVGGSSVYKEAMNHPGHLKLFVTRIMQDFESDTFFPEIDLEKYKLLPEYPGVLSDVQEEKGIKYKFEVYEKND
Put plainly: SDR assay, cellular lysate from DHFR C-terminus HiBiT gene edited HEK293 cells. In kind it is binding. From the text: A HEK293 cell line constitutively expressing S. pyogenes Cas9 (GeneCopoeia, Cat # SL553) was used to generate the C-terminal edit of the DHFR gene (DHFR-C-HiBiT) applying general methodology previously described[24],[52],[53]. The DHFR 3’-gene sequence surrounding the stop codon (underlined), […] […], used to generate the CRISPR-Cas9 crRNA sequence, […], was accomplished with IDT software (Custom Alt-R CRISPR-Cas9 guide RNA).
For lysate preparation, the DHFR-C-HiBiT gene edited HEK293 monoclonal cell line was grown in a T75 flask (DMEM, 10% FBS, 1% P/S) to confluence. […] The cell pellet was lysed by adding 500 μL ice-cold NP-40 lysis buffer (ThermoFisher Scientific, Cat # FNN0021) containing 5 µL 100x protease inhibitor cocktail in DMSO (Sigma Aldrich, Cat # P8340-1mL) incubated on a rocker at 4 °C for 1 h (protected from light), centrifuged at 15,000 g for 10 min at 4 °C, after which supernatant was transferred to a 1.5 mL Eppendorf tube, and frozen at −80 °C.
Protein-HiBiT targets were expressed and purified to various levels of homogeneity and optimized at indicated concentrations, not necessarily the lowest possible concentrations, to produce consistent luminescence with statistically significant signal above no protein background control in target specific assay buffer (see Supplementary Table 11). Four μL/well buffer control (column 1) and NLuc or HiBiT tagged proteins (columns 2-48) were dispensed into 1536-well Greiner Bio-One white, high solid base, medium bind plates with a BioRaptr 2. Compounds and controls were added to the microtiter plates as described in Supplementary Data 8, then incubated and protected from light for 30 min at ambient temperature. A modified dispensing protocol was developed for aqueous ligands that were unable to be transferred by pintool (see Supplementary Table 10 aqueous ligand dispense section). The substrate solution was prepared according to manufacturer’s protocol where ω-fragment (LgBiT) was added at 1:100 dilution and NLuc substrate (furimazine) was prepared at 1:50 dilution in Nano-Glo HiBiT lytic buffer (Promega, Cat # N3040). This substrate solution, 3 μL/well, was added with a BioRaptr 2 and assay plates were protected from light and incubated for 10 min at ambient temperature. NLuc luminescence was measured on a ViewLux CCD plate reader with optimized reader settings to each protein target (see Supplementary Tables 10, 11 and Supplementary Fig. 14 for additional details).

Assay [3] concerns the target T1, DHFR-C-HiBiT. Nature of the assay: Dihydrofolate reductase enzymatic absorbance assay. In kind it is biochemical. More on the design: His10 (C); made in house; host or cells: E. coli. The procedure:
To accommodate consistent compound addition used in this study, DHFR enzymatic activity[72],[73] was measured in a 1536-well miniaturized assay adapted from the Sigma-Aldrich dihydrofolate reductase assay (Cat # CS0340). […] Compounds and controls were added as above to each plate as described in Supplementary Data 8. DHFR-C-HiBiT was incubated with compounds for 20 min at ambient temperature. […] Then 2 µL of dihydrofolate (DHF, Sigma-Aldrich, Cat # D7006) substrate, freshly prepared according to manufacturer’s protocol and diluted in 1X assay kit buffer, was dispensed into each microplate well with a BioRaptr 2 for a final assay DHF concentration of 100 μM. […] See Supplementary Table 9 for additional details.
Supplementary Table 9. Protocol for Dihydrofolate reductase (DHFR) enzymatic absorbance […]
Supplementary Table 9: Protocol for Dihydrofolate reductase (DHFR) enzym atic absorbance assay Sequence Param eter ValueDescription
No enzym e control (colum n 1) and enzym e solution (100 nM DHFR-C-HiBiT final assay […]
(Aurora), dispensed with BioRaptr 2 […]
com pounds transferred to respective colum ns with Pintool
2b Test Com pounds 23 nLfinal concentration range) in colum ns 5-48; com pounds transferred to respective wells with […]
3 Incubation 20 m inIncubate enzym e + com pounds at am bient tem p for 20 m in, protected from light 5 Reagent 2 µLSubstrate solution; dihydrofolic acid (100 µM final concentration) in 1X assay buffer; dispensed with BioRaptr 2
6 Incubation 10 m inAm bient tem perature, protected from light
Dihydrofolic acid substrate solution: 1X assay buffer (Sigm a-Aldrich, Cat # A5603); 300 µM dihydrofolic acid (100 µM 5 final) (Sigm a-Aldrich, Cat # D7006) prepared fresh according to m anufacturer’s protocol. Solution filtered through 0.22 µm syringe filter prior to dispense.

Take `Nc1nc(N)c2nc(CNc3ccc(C(=O)N[C@@H](CCC(=O)O)C(=O)O)cc3)cnc2n1` [aminopterin]: the “enhanced sensitivity in the SDR assay format versus functional DHFR assay” value at DHFR-C-HiBiT [1] is given as ~ 100 fold.

Consider `CN(Cc1cnc2nc(N)nc(N)c2n1)c1ccc(C(=O)NC(CC(F)C(=O)O)C(=O)O)cc1` (centres unmarked) [g-fluoromethotrexate], for which the “pSDR50 (lysate + 1 mM NADPH), Mean” value in assay [2] (1:100 lysate (~0.2 nM) with 1 mM NADPH) is reported as 9.1. The “pSDR50 (lysate), Mean” value in assay [2] (1:100 lysate (~0.2 nM) without added NADPH) stood at 7.8. For the same compound, the “pSDR50 (DHFR-C-HiBiT), Mean” value at DHFR-C-HiBiT [1] (SDR assay using DHFR-C-HiBiT (0.5 nM)) came out at 8.70. In addition, the “pIC50 (DHFR Enz Assay), Mean” value against DHFR-C-HiBiT [3] (functional DHFR-C-HiBiT assay (100 nM, 75 mM NADPH)) is reported as 6.55.

`Nc1nc2[nH]cc(CCc3ccc(C(=O)N[C@@H](CCC(=O)O)C(=O)O)cc3)c2c(=O)[nH]1` [pemetrexed]: the “DHFR binding in SDR assay (in words)” value on DHFR-C-HiBiT [1] (purified DHFR-C-HiBiT) was “poor DHFR affinity”. Further, the “DHFR affinity in functional assay (in words)” value on DHFR-C-HiBiT [3] (DHFR-C-HiBiT 100 nM, 75 μM NADPH) was “poor DHFR affinity”.

As for `C#CCC(Cc1cnc2nc(N)nc(N)c2n1)c1ccc(C(=O)N[C@@H](CCC(=O)O)C(=O)O)cc1` (some centres unmarked) [pralatrexate], the EC50 in assay [2] (1:100 lysate (~0.2 nM) with 1 mM NADPH, read-out: pSDR50 (lysate + 1 mM NADPH), Mean (converted)) was 0.316 nM; in assay [2] (1:100 lysate (~0.2 nM) without added NADPH, read-out: pSDR50 (lysate), Mean (converted)) it was 3.16 nM; on DHFR-C-HiBiT [1] it was 1.02 nM. Further, at DHFR-C-HiBiT [1], the “enhanced sensitivity in the SDR assay format versus functional DHFR assay” value is given as ~ 100 fold. Also, the IC50 on DHFR-C-HiBiT [3] (functional DHFR-C-HiBiT assay (100 nM), read-out: pIC50 (DHFR Enz Assay), Mean (converted)) was 107 nM.

On to `COc1cc(NCc2ccc3nc(N)nc(N)c3c2C)cc(OC)c1OC` [trimetrexate], for which the “enhanced sensitivity in the SDR assay format versus functional DHFR assay” value at DHFR-C-HiBiT [1] was ~ 100 fold.

Regarding `CN(Cc1cnc2nc(N)nc(N)c2n1)c1ccc(C(=O)NC(CC(F)C(=O)O)C(=O)O)cc1` (centres unmarked) [γ-fluoromethotrexate], at DHFR-C-HiBiT [1], the “enhanced sensitivity in the SDR assay format versus functional DHFR assay” value is ~ 100 fold.

The record behind these values is paper PMC12064818, “A general assay platform to study protein pharmacology using ligand-dependent structural dynamics” (Nature Communications, 2025).
